For experiment [1], the system named is HEK293 cells overexpressing APOL1 G2. In words: APOL1 G2 HEK293 cell rescue assay (reversal of cell death caused by overexpression of APOL1). It counts as cell-based. To be noted: geometric mean of at least 2 assay runs, † = single assay run. The method, then: Unless otherwise specified, EC50 values are reported as the geometric mean of at least 2 assay runs on separate days. Each run represents the average of a technical replicate, where each compound was assayed twice in the same plate. A superscript t symbol indicates a value from the average of a technical replicate from a single assay run, where each compound was assayed twice in the same plate. Compounds in Table 40 are referred to by the corresponding Compound Number in Table 1, which is also referred to in the synthetic examples. When one or more of the numbered compounds are identified by stereochemistry (for example, (R)- or (S)-), the specific stereoisomer for which data is provided in Table 40 may be identified by the elution order of such compound as described in the synthetic examples. Absolute stereochemistry of such compounds may be identified by methods known in the art. For Table 40 below, n/a represents “not available”.
Rescue EC50 values reported in Table 40 below represent the half-maximal effective concentration for reversal of cell death caused by overexpression of APOL1.

In experiment [2] the test system is HEK293 clonal cell line overexpressing APOL1 G1. In words: APOL1 G1 HEK293 cell rescue assay (Example B3). It is filed as cell-based. Particulars: geometric mean of at least 2 runs, † = single run, ¥ = concentration at 50% rescue estimated (no sigmoidal curve). The method, then:
Compounds were also assayed in a HEK293 clonal cell line overexpressing APOL1 G1 by a method similar to that shown in Example B2 above.
Unless otherwise specified, EC50 values are reported as the geometric mean of at least 2 assay runs on separate days. Each run represents the average of a technical replicate, where each compound was assayed twice in the same plate. A superscript † symbol indicates a value from the average of a technical replicate from a single assay run, where each compound was assayed twice in the same plate. A ¥ symbol represents compound concentration at 50% rescue estimated due to lack of sigmoidal curve preventing curve fitting. Compounds in Table 41 are referred to by the corresponding Compound Number in Table 1, which is also referred to in the synthetic examples. When one or more of the numbered compounds are identified by stereochemistry (for example, (R)- or (S)-), the specific stereoisomer for which data is provided in Table 41 may be identified by the elution order of such compound as described in the synthetic examples. Absolute stereochemistry of such compounds may be identified by methods known in the art. For Table 41 below, n/a represents “not available”.
Rescue EC50 values reported in Table 41 below represent the half-maximal effective concentration for reversal of cell death caused by overexpression of APOL1.

[3] abbreviates: HEK293 clonal line overexpressing APOL1 G1.
Where [4] appears, read: Homo sapiens, HEK293, HEK293 overexpressing APOL1 G2.

A word on the EC50: it is the concentration giving half of the maximal effect. Consider `CC(COc1ccc(S(C)(=O)=O)cc1)N1CCC2(CC1)C(=O)N(C1CC(O)C1)c1ccc(Cl)cc12` (single isomer, unassigned) [Compound 206, 5-chloro-1′-[(2S) or (2R)-1-(4-methanesulfonylphenoxy)propan-2-yl]-1-[(cis) or (trans)-3-hydroxycyclobutyl]-1,2-dihydrospiro[indole-3,4′-piperidin]-2-one], for which the EC50 in experiment [1] (HEK293 overexpressing APOL1 G2) was above 9540 nM; in experiment [2] (setting [3]) it was 4310 nM. Taken in the same sequence, the figures for `CC(COc1ccc(S(C)(=O)=O)cc1)N1CCC2(CC1)C(=O)N(C1CC(O)C1)c1ccc(Cl)cc12` (single isomer, unassigned) [Compound 207, 5-chloro-1′-[(2S) or (2R)-1-(4-methanesulfonylphenoxy)propan-2-yl]-1-[(trans) or (cis)-3-hydroxycyclobutyl]-1,2-dihydrospiro[indole-3,4′-piperidin]-2-one] were above 10000 nM and above 10000 nM. Take `O=C1CCc2cc(OCCN3CCC4(CC3)C(=O)Nc3ccc(C(F)F)cc34)cnc2N1C1CC(CO)C1` (single isomer, unassigned) [Compound 310, 5-(difluoromethyl)-1′-[2-({7-oxo-8-[(trans) or (cis)-3-(hydroxymethyl)cyclobutyl]-5,6,7,8-tetrahydro-1,8-naphthyridin-3-yl}oxy)ethyl]-1,2-dihydrospiro[indole-3,4′-piperidin]-2-one]: the EC50 is 103 nM in experiment [1] (HEK293 overexpressing APOL1 G2) and 267 nM in experiment [2] (setting [3]). As for `O=C1Nc2ccc(Cl)cc2C12CCN(CCOc1cnc(C(O)CO)nc1)CC2` (single isomer, unassigned) [Compound 378, 5-chloro-1′-[2-({2-[(1S or 1R)-1,2-dihydroxyethyl]pyrimidin-5-yl}oxy)ethyl]-1,2-dihydrospiro[indole-3,4′-piperidin]-2-one], the values for the EC50 in experiment [1] (HEK293 overexpressing APOL1 G2) and in experiment [2] (setting [3]) were 388 nM and around 1000 nM, respectively. Taken in the same sequence, the figures for `O=C1Nc2ccc(Cl)cc2C12CCN(CCOc1cnc(C(O)CO)nc1)CC2` (single isomer, unassigned) [Compound 379, 5-chloro-1′-[2-({2-[(1R or 1S)-1,2-dihydroxyethyl]pyrimidin-5-yl}oxy)ethyl]-1,2-dihydrospiro[indole-3,4′-piperidin]-2-one] were 842 nM and above 10000 nM. With `CC(CO)(c1ncc(OCCN2CCC3(CC2)C(=O)Nc2ccc(Cl)cc23)cc1C(F)(F)F)S(C)(=O)=O` (single isomer, unassigned) [Compound 403, 5-chloro-1′-[2-({6-[(2R or 2S)-1-hydroxy-2-methanesulfonylpropan-2-yl]-5-(trifluoromethyl)pyridin-3-yl}oxy)ethyl]-1,2-dihydrospiro[indole-3,4′-piperidin]-2-one], the EC50 in experiment [1] (HEK293 overexpressing APOL1 G2) is 95.7 nM; in experiment [2] (setting [3]), 144 nM. In the case of `N#Cc1ccc2c(c1)C1(CCN(CCOc3cnc(CCO)nc3)CC1)C(=O)N2` [Compound 332, 1′-(2-{[2-(2-hydroxyethyl)pyrimidin-5-yl]oxy}ethyl)-2-oxo-1,2-dihydrospiro[indole-3,4′-piperidine]-5-carbonitrile], in experiment [2] (Homo sapiens, HEK293, HEK293 clonal line overexpressing APOL1 G1), the EC50 was around 10000 nM. As for `C[C@]1(O)C[C@@H](n2c(=O)cc(C(F)F)c3cc(OCCN4CCC5(CC4)C(=O)Nc4ccc(Cl)cc45)cnc32)C1` [Compound 339, 5-chloro-1′-(2-{[5-(difluoromethyl)-7-oxo-8-[(cis)-3-hydroxy-3-methylcyclobutyl]-7,8-dihydro-1,8-naphthyridin-3-yl]oxy}ethyl)-1,2-dihydrospiro[indole-3,4′-piperidin]-2-one], the EC50 in experiment [1] (setting [4]) came out at 36.6 nM. Consider `C[C@]1(O)C[C@@H](n2c(=O)cc(C(F)F)c3cc(OCCN4CCC5(CC4)C(=O)Nc4ccc(C(F)F)cc45)cnc32)C1` [Compound 340, 5-(difluoromethyl)-1′-(2-{[5-(difluoromethyl)-7-oxo-8-[(cis)-3-hydroxy-3-methylcyclobutyl]-7,8-dihydro-1,8-naphthyridin-3-yl]oxy}ethyl)-1,2-dihydrospiro[indole-3,4′-piperidin]-2-one], for which the EC50 in experiment [1] (setting [4]) was determined as 30.2 nM.

The values above are taken from patent publication US12344610B2, “APOL1 inhibitors and methods of use” (Maze Therapeutics, Inc., priority 2022, dated 2025).
